How the values were obtained:
[1] = system: T cells from the thymus of lck::eGFP transgenic zebrafish; test: Screen for T cell ablation in lck::eGFP transgenic zebrafish larvae; assay type: in vivo
Experimental: FIG. 4 is a schematic of the experimental set-up of drug screen using DIVERSet small molecule library and lck-GFP transgenic zebrafish. Beginning at the top of the figure, three day 6 pf transgenic larvae are arrayed in 300 μL of E3 embryos water into each of the 96 wells of a round bottom tissue culture plate (except G1, H1, G12, H12). Controls are added in triplicate: DMSO (A1-C1), E3 (D1-F1), dexamethasone 25 μM (A12-C12), and methanol (D12-F12). Then, five compounds from the DIVERSet library are added to each well at a final concentration of 5 μM. Plates are incubated at […] for 48 hours, and are inspected by fluorescence microscopy at 24 and 48 hours. […] Compounds from wells identified as active are tested individually in triplicates. One of the five compounds that is active in all three wells is identified and is worked up further (left side).
To extend the versatility of the system, a transgenic line of zebrafish was generated; in this line all T cells are tagged with green fluorescent protein (GFP). GFP is driven by the T cell specific p56^lck promoter (Langenau et al., Proc Natl Acad Sci USA 101:7369-7374, 2004).
Based on the above observation that zebrafish T cells can be killed by the small molecule dexamethasone (MW 392) (Langenau et al., Proc Natl Acad Sci USA 101:7369-7374, 2004) a screen for novel compounds with a similar T cell ablative profile was performed. […]

[2] = system: human T-ALL line Jurkat; test: MTT cell viability, Jurkat; assay type: cell-based; settings: 48 hours
Experimental: FIG. 3 is a graph showing viability of human T-ALL lines incubated with individual compounds. Specifically, two human ALL lines (B-ALL: RS4; 11 and T-ALL: Jurkat) were incubated on day 0 with serum or with 2.5 μM of the indicated compounds (except for aphidicolin 1 μM and cyclosporine 1.5 μM). 48 hours later, cells were tested for viability by MTT test. Results from the mean of 3 to 4 experiments carried out in triplicate (individual dots) and the mean of all experiments (horizontal bar) are indicated. Results are shown for compounds without a cell cycle effect (B). Viability of untreated cells was arbitrarily set at 1.0.
Cell culture experiments: Cells were incubated at 37° C. in 75 mL flasks in RPMI containing 10% FBS, 5 mL Penicillin/Streptomycin (100×) in a total volume of […]. Cells were counted using a hemocytometer, and 25,000 cells were plated in each well of a 96-well plate. Compounds and controls were added and cells were harvested after a 48 hr incubation period.
To assess effects of compounds, cell viability was measured. […] After crystal solubilization with DMSO a blue color (that is proportional to the amount of crystal formed) can be measured. […] Final optical density (OD) obtained from formazan formation was calculated OD=L1-L2 (background). […]

[3] = Complete blood count (CBC) evaluation in mice; assay type: in vivo, male Swiss Albino mouse; settings: mouse, 48 h after dosing
Experimental: The pharmacokinetics of 1H-indole-3-carbaldehyde quinolin-8-ylhydrazone (Compound C3) was evaluated following intravenous (3 mg/kg) and oral (15 mg/kg) solution administration of 1H-indole-3-carbaldehyde quinolin-8-ylhydrazone in male Swiss Albino mouse. The effect of the Test Item, 1H-indole-3-carbaldehyde quinolin-8-ylhydrazone on complete blood count (CBC) was also evaluated. Pharmacokinetic phase consisted of two groups, Group 1 and Group 2. Animals in Group 1 were given intravenous bolus dose in a vehicle containing 5% N,N-dimethylacetamide, 5% CREMOPHOR™ EL and 90% Dextrose solution (5% w/v) and those in Group 2 were given oral solution dose in a vehicle, the composition of which was same as that of intravenous formulation. In addition, the effect of Test Item on complete blood count was evaluated following intravenous and oral dose administration along with its vehicle controls. A total of four groups were used each with 6 mice.
From the pharmacokinetic group, predose samples were collected from 3 animals in each group. Following dose administration terminal blood samples were collected at each of the following time points (in triplicate): 0.083 (only for intravenous), 0.25, 0.5, 1, 2, 4, 8, 12 and 24 hours. At each time point, approximately 500 μL of whole blood was withdrawn from the retro orbital sinus and collected in labeled tubes containing dipotassium EDTA as anticoagulant (20 μL of 200 mM K2 EDTA solution per mL of blood). Plasma was separated by centrifuging the whole blood at about 2500 g for 10 minutes at 4° C. within 1 h of sample collection. Separated plasma was stored below minus 50° C. until bioanalysis. A sensitive LC-MS/MS method was used for the quantitation of 1H-indole-3-carbaldehyde quinolin-8-ylhydrazone. The lower limit of quantitation was 1.04 ng/mL. For CBC evaluation, approximately 500 μL of blood was collected in labeled tubes containing dipotassium EDTA as anticoagulant (10 […]/mL of blood) after 48 h of dose administration from all animals.
A total of 24 mice were divided in to four groups as follows: […]

Other hematological parameters vs vehicle control ([3]; intravenous 3 mg/kg and oral 15 mg/kg): no effect
White blood cell count vs vehicle control ([3]; intravenous 3 mg/kg): lower
Platelet count vs vehicle control ([3]; oral 15 mg/kg): lower
Compound: C(=NNc1cccc2cccnc12)c1c[nH]c2ccccc12 [Compound C3, 1H-indole-3-carbaldehyde quinolin-8-ylhydrazone]
Activity in vivo (active concentration) [1]: 3 µM
Response of T cell leukemia line (viability, MTT) ([2]; 2.5 μM, FIG. 3): responded similarly
Effective concentration killing Jurkat in vitro ([2]; MTT): 2.5 µM
